The test system of data set [1] is PD-L1. The experiment in a line: Western blot of PD-L1 in exosomes of 4T1 cells. It counts as cell-based, mouse. As to conditions: 1 μM. How it is done: The current PD-L1 and PD1 therapies apply PD-L1 or PD1 monoclonal antibodies to block the PD-L1/PD1 signaling, which results in cytotoxic T cells recognizing and killing the tumor cells. […] First, flow cytometry-based quantification of plasma membrane levels of PD-L1 in 4T1 cells treated with or without 6J1 (1 μM) for 24 h. 4T1 cells are treated with or without 6J1 (1 μM) for 24 h. The supernatant is collected, and the concentration of extracellular vesicle is determined using a Nanosight nanoparticle analyzer in FIG. 8b. The exosomes are also collected and subjected to western blot analysis of the EVs marker and PD-L1 in FIG. 8c.
Therefore, it is possible that the increased exosomal PD-L1 secretion induced by 6J1 may still suppress the tumor-infiltrating T cell cytotoxicity in vivo, even though 6J1 reduces the cell surface expression level of PD-L1 on the tumor cells. To evaluate the role of exosomal PD-L1 in the tumor microenvironment and tumor progression in mice, inventors knock out Rab27a in 4T1 cells to inhibit the secretion of exosomes. 4T1-shNC or 4T1-shRab27A cells are treated with or without 6J1 (1 μM). The supernatant is collected, and the concentration of extracellular vesicle is determined using a Nanosight nanoparticle analyzer. […] Inventors analyze the plasma membrane levels of PD-L1 in 4T1-shNC or 4T1-shRab27A cells treated with or without 6J1 (1 μM). […]
(In general: A western blot detects proteins with antibodies after separation by electrophoresis.)

Data set [2] is described as follows: Oral bioavailability (stated, no method). As to conditions: in vivo.
The subject of data set [3] is HeLa cells. The data set can be described thus: Extracellular vesicle concentration, Nanosight nanoparticle analyzer, HeLa cells. It counts as cell-based. As to conditions: 1 μM, 24 h. How it is done:
It has previously been shown that interfering with endosomal trafficking promotes exosome secretion. Moreover, PD-L1 has been reported to be enriched in exosomes and secreted outside the cell. Thus, inventors speculate that 6J1 may induce the secretion of the PD-L1 trapped in the endosomal compartments via exosomes. To determine whether 6J1 may induce the secretion of PD-L1 via exosomes, HeLa cells are treated with or without 6J1 (1 μM) for 24 h. The supernatant is collected. Inventors purify the exosomes from the supernatant of HeLa cells by sequential centrifugation. The concentration of extracellular vesicle is determined using a Nanosight nanoparticle analyzer. And HeLa cells are treated with or without 6J1 (1 μM) for 48 h. The cell and supernatant are collected for Western Blot analysis. […] Moreover, the activity of Rab27a in HeLa cells treated with or without 6J1 (1 μM) is examined with a GST-SHD pulldown assay.
Moreover, ATG5- or LC3-knockout HeLa cells are treated with or without 6J1 (1 μM) for 24 h. The supernatant is collected, and the concentration of the extracellular vesicle is determined using a Nanosight nanoparticle analyzer. The exosomes are also collected and subjected to western blot analysis of the EVs marker and PD-L1 in FIG. 7a. The live cells are also labeled with an anti-PD-L1 antibody in FIG. 7b and subjected to flow cytometry analysis in FIG. 7c. […] In addition, inventors assess whether other autophagy-related genes, e.g., ATG4B, ATG7, Beclin1, and Vps34 are involved in 6J1-mediated exosomal PD-L1 secretion. ATG4B-, ATG7-, Beclin1-, or VPS34-knockout HeLa cells are treated with or without 6J1 (1 μM) for 24 h. The supernatant is collected, and the concentration of extracellular vesicle is determined using a Nanosight nanoparticle analyzer. The exosomes are also collected and subjected to western blot analysis of the EVs marker and PD-L1 in FIG. 7d. The live cells are also labeled with an anti-PD-L1 antibody and subjected to flow cytometry analysis in FIG. 7e.

For data set [4], the system named is HeLa cells. The data set can be described thus: DQ-BSA endocytic trafficking assay. Format: cell-based. As to conditions: 1 μM, 3 h then 6 h with 10 μg/ml DQ-green BSA, flow cytometry. How it is done:
A DQ-BSA endocytic trafficking assay screens these compounds. DQ-BSA, a self-quenching dye, is internalized into the cytoplasm by endocytosis, after which it is delivered to the lysosomes for degradation to relieve fluorescence-quenching, resulting in bright fluorescence in cells. HeLa cells are plated on 6-well plates and treated with the indicated compound for 3 h. Then, cells are replaced with Trafficking media containing 10 μg/ml DQ-green BSA with or without drugs (1 μM) and incubated at 37° C. in a 5% CO2 humidified cell culture chamber another 6 h followed by Flow cytometry analysis. […] Inventors also test whether these hit compounds can inhibit the recycling endosomal pathway by performing the fluorescent transferrin conjugates recycling assay. Iron-bound transferrin interacts with its receptor (TfR) to trigger the internalization of the iron-transferrin-TfR complex via clathrin-mediated endocytosis. Fe^3+ irons are subsequently dissociated from their ligands in the acidic endosome environment and released into the cytoplasm. […] Thus, the fluorescence intensity of fluorescent transferrin conjugates-labeled cells can reflect the recycling endocytic trafficking process. […] Cells are collected for flow cytometry analysis, and the mean fluorescence intensity of transferrin is quantified.

Consider 1 molecule from US11986482B2, “Method of promoting antitumor or anti-cancer immunity” (City University of Hong Kong, priority 2021, dated 2024).

Turning to `OCCOCCN(c1ccccc1)c1nc(N/N=C/c2cccc(I)c2)nc(N2CCOCC2)n1` [Compound 6J1], the “6J1-induced exosomal PD-L1 levels” value in data set [1] (4T1-shRab27A cells) is “significantly inhibits”. The “secretion of PD-L1 in exosomes” value in data set [1] (4T1 cells, 24 h) is “induces the secretion of PD-L1 in exosomes”. The oral bioavailability entry in data set [2] was “good oral bioavailability”. In addition, the “6J1-induced EVs secretion” value in data set [3] (ATG4B-, ATG7-, Beclin1- or VPS34-knockout HeLa cells) is given as “fails to abolish”; in data set [3] (ATG5- or LC3B-knockout HeLa cells), “Neither ATG5 nor LC3B knockout impairs”. Also, in data set [3] (HeLa cells), the “exosome secretion (extracellular vesicle concentration)” value is on record as “dramatically induces exosome secretion”. For the same molecule, in data set [4], the “endocytic trafficking (fluorescence intensity of DQ-BSA-labeled cells)” value is recorded as “dramatically inhibit endocytic trafficking”.
